The molecules below were run against Cdc7/Dbf4 (Homo sapiens, UniProt O00311) (assay: Cdc7 Biochemical Assay Method 3: Cdc7/Dbf4 Enzyme TR-FRET Assay measuring pS40MCM2). Settings: 1 μM ATP, read-out: Biochemical Method 3 (pIC50) (converted).
Chain of Cdc7/Dbf4 (O00311 whole entry): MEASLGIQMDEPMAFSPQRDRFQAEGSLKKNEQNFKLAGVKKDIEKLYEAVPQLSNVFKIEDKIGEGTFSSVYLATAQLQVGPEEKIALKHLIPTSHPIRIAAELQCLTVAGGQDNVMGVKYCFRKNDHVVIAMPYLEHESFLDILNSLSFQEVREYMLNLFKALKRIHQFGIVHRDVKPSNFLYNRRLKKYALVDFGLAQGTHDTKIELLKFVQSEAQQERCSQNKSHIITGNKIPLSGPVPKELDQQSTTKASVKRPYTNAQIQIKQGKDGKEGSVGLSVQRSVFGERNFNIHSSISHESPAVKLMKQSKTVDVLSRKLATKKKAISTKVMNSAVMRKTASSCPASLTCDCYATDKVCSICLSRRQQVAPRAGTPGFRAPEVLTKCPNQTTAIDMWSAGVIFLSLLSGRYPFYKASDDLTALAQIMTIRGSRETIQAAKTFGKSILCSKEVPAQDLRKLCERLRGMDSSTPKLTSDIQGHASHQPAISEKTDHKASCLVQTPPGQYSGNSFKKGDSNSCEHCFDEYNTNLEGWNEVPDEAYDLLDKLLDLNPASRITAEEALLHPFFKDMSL
Chain of Cdc7/Dbf4 (Q9UBU7 whole entry partner): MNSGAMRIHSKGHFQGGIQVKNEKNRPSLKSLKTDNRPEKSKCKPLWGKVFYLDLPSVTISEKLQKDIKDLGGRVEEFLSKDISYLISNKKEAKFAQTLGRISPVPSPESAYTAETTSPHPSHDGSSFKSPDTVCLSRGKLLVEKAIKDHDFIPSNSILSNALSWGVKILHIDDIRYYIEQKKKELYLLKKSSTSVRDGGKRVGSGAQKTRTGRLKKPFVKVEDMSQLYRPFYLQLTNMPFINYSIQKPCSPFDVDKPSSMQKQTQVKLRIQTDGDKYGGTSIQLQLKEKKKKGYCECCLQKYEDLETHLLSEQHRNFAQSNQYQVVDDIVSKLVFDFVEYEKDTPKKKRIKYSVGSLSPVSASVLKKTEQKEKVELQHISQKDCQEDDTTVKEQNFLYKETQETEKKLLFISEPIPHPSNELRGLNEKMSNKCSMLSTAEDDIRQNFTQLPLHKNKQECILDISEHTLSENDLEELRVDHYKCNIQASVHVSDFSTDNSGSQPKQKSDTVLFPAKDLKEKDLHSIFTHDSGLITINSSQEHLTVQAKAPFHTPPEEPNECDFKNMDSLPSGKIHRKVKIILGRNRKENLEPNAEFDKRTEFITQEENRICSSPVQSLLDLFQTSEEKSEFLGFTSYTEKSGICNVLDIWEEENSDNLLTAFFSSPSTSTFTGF
Procedure: This protocol describes a method for assaying a compounds' ability to inhibit Cdc7 activity by measuring pS40MCM2 levels in a Cdc7/Dbf4 Enzyme TR-FRET Assay.
2.5 nM Cdc7/Dbf4 was incubated with 100 nM of biotin-labelled peptide 35-TDALTS(pS)PGRDLP in the presence of 1 μM ATP at 25° C. for 120 minutes. The phosphorylation of the peptide was detected using TR-FRET. Anti-Mcm2 (pS40) antibody, Terbium anti-rabbit secondary antibody and Streptavidin-Alexa Fluor488 form the detection system.
`CC1CN(C)CCCN1c1nc(-c2ccnc(F)c2)[nH]c(=O)c1Cl` (stereo not drawn) [Compound 302] gave an IC50 of 25.1 nM.
In the case of `CN(c1nc(-c2ccnc(F)c2)[nH]c(=O)c1Cl)C1CCNCC1(C)C` (stereo not drawn) [Compound 210], the IC50 is reported as 4.37 nM.
`O=c1[nH]c(-c2ccnc(F)c2)nc(O[C@H]2CCCNC2)c1Cl` [Compound 331] gave an IC50 of 9.55 nM.
`O=c1[nH]c(-c2ccnc(F)c2)nc(N2CCC3(CCCN3)C2)c1Cl` (stereo not drawn) [Compound 217] showed an IC50 of 45.7 nM.
`O=c1[nH]c(-c2ccnc(F)c2)nc(O[C@H]2CCOC2)c1Cl` [Compound 200] was tested, and the IC50 was 8.13 nM.
Molecule `CCN(c1nc(-c2ccnc(F)c2)[nH]c(=O)c1Cl)C1CCOCC1` [Compound 266] has an IC50 of 36.3 nM.
For `O=c1[nH]c(-c2ccnc(F)c2)nc(N2CCC3(CCCNC3)C2)c1Cl` (stereo not drawn) [Compound 220], the IC50 was 15.5 nM.
For `NC(=O)[C@H]1CCN(c2nc(-c3ccnc(F)c3)[nH]c(=O)c2Cl)C1` [Compound 251], the IC50 was 4.07 nM.
For `O=c1[nH]c(-c2ccnc(F)c2)nc(N2CCCC3NCCCC32)c1Cl` (stereo not drawn) [Compound 264], the IC50 was 1.58 nM.
`C[C@H]1COC[C@H](C)N1c1nc(-c2ccnc(F)c2)[nH]c(=O)c1Cl` [Compound 342] showed an IC50 of 129 nM.
`O=c1[nH]c(-c2ccnc(F)c2)nc(N2CCCC23CCNCC3)c1Cl` [Compound 263] gave an IC50 of 11 nM.
For `O=C(NCCO)C1CCN(c2nc(-c3ccnc(F)c3)[nH]c(=O)c2Cl)CC1` [Compound 256], the IC50 was 2 nM.
`O=c1[nH]c(-c2ccnc(F)c2)nc(N2CCN(c3nc[nH]n3)CC2)c1Cl` [Compound 295] was tested, and the IC50 was 0.891 nM.
With `CC(C)c1nnc2n1CCN(c1nc(-c3ccnc(F)c3)[nH]c(=O)c1Cl)C2` [Compound 270] the IC50 was 20.9 nM.
Molecule `CN(C)C(=O)N1CCN(c2nc(-c3ccnc(F)c3)[nH]c(=O)c2Cl)CC1` [Compound 240] has an IC50 of 3.72 nM.
Molecule `CN1CCN(C2CCN(c3nc(-c4ccnc(F)c4)[nH]c(=O)c3Cl)CC2)CC1` [Compound 265] has an IC50 of 4.07 nM.
`O=c1[nH]c(-c2ccnc(F)c2)nc(N2CCn3c(nnc3C(F)(F)F)C2)c1Cl` [Compound 291] was tested, and the IC50 was 4.17 nM.
Molecule `NC1CN(c2nc(-c3ccnc(F)c3)[nH]c(=O)c2Cl)C1` [Compound 325] has an IC50 of 11.2 nM.
`CC(C)C(=O)NC1CCN(c2nc(-c3ccnc(F)c3)[nH]c(=O)c2Cl)CC1` [Compound 254] showed an IC50 of 2.4 nM.
With `O=c1[nH]c(-c2ccnc(F)c2)nc(N2CC[C@@H](O)C2)c1Cl` [Compound 214] the IC50 was 14.8 nM.
With `O=c1[nH]c(-c2ccnc(F)c2)nc(N2CCC3(CNC3)C2)c1Cl` [Compound 245] the IC50 was 2.04 nM.
`CN(c1nc(-c2ccnc(F)c2)[nH]c(=O)c1Cl)[C@H]1CCCNC1` [Compound 267] was tested, and the IC50 was 3.89 nM.
`NC(=O)[C@@H]1CCCN1c1nc(-c2ccnc(F)c2)[nH]c(=O)c1Cl` [Compound 248] was tested, and the IC50 was 42.7 nM.
In the case of `NC[C@H]1CCN(c2nc(-c3ccnc(F)c3)[nH]c(=O)c2Cl)C1` [Compound 219], the IC50 is reported as 6.76 nM.
`O=c1[nH]c(-c2ccnc(F)c2)nc(O[C@@H]2CCCNC2)c1Cl` [Compound 330] was tested, and the IC50 was 0.955 nM.
For `C[C@@H]1COC[C@H](C)N1c1nc(-c2ccnc(F)c2)[nH]c(=O)c1Cl` [Compound 343], the IC50 was 6.76 nM.
In the case of `O=c1[nH]c(-c2ccnc(F)c2)nc(N2CCCC23CCNC3)c1Cl` (stereo not drawn) [Compound 259], the IC50 is reported as 2.82 nM.
For `O=c1[nH]c(-c2ccnc(F)c2)nc(N2CCCC2CN2CCOCC2)c1Cl` (stereo not drawn) [Compound 246], the IC50 was 1000 nM.
`O=c1[nH]c(-c2ccnc(F)c2)nc(N2CCC3(CCCO3)CC2)c1Cl` [Compound 238] showed an IC50 of 5.25 nM.
With `O=c1[nH]c(-c2ccnc(F)c2)nc(OC2CNC2)c1Cl` [Compound 194] the IC50 was 14.5 nM.
In the case of `O=c1[nH]c(-c2ccnc(F)c2)nc(N2CCC(CN3CCOCC3)C2)c1Cl` (stereo not drawn) [Compound 212], the IC50 is reported as 79.4 nM.
In the case of `N[C@H]1CC[C@@H](Oc2nc(-c3ccnc(F)c3)[nH]c(=O)c2Cl)C1` [Compound 195], the IC50 is reported as 1.32 nM.
For `O=C1NC(=O)C2(CCN(c3nc(-c4ccnc(F)c4)[nH]c(=O)c3Cl)CC2)N1` [Compound 233], the IC50 was 2.19 nM.
For `O=c1[nH]c(-c2ccnc(F)c2)nc(N2CCOCC(O)C2)c1Cl` (stereo not drawn) [Compound 207], the IC50 was 1.29 nM.
For `O=c1[nH]c(-c2ccnc(F)c2)nc(N2C[C@H](O)C[C@H](O)C2)c1Cl` [Compound 189], the IC50 was 1.62 nM.
Molecule `O=C1CCN(c2nc(-c3ccnc(F)c3)[nH]c(=O)c2Cl)CCN1` [Compound 288] has an IC50 of 0.933 nM.
`CNC(=O)C1CCCN(c2nc(-c3ccnc(F)c3)[nH]c(=O)c2Cl)C1` (stereo not drawn) [Compound 253] was tested, and the IC50 was 7.41 nM.
For `O=c1[nH]c(-c2ccnc(F)c2)nc(N2CCCN(CC(F)(F)F)CC2)c1Cl` [Compound 299], the IC50 was 6.46 nM.
With `O=c1[nH]c(-c2ccnc(F)c2)nc(N2CCC3(CCNC3)CC2)c1Cl` [Compound 242] the IC50 was 1.15 nM.
For `O=c1[nH]c(-c2ccnc(F)c2)nc(N2CCCC3(CCCN3)C2)c1Cl` (stereo not drawn) [Compound 250], the IC50 was 9.77 nM.
In the case of `CC1(C)CNCCC1Nc1nc(-c2ccnc(F)c2)[nH]c(=O)c1Cl` (stereo not drawn) [Compound 211], the IC50 is reported as 17.4 nM.
`O=c1[nH]c(-c2ccnc(F)c2)nc(SC2CCOCC2)c1Cl` [Compound 191] was tested, and the IC50 was 3.72 nM.
In the case of `O=c1[nH]c(-c2ccnc(F)c2)nc(N2CCC3(CCNC3)C2)c1Cl` (stereo not drawn) [Compound 218], the IC50 is reported as 8.13 nM.
`CC(C)(O)[C@H]1CN(c2nc(-c3ccnc(F)c3)[nH]c(=O)c2Cl)CCN1` [Compound 187] gave an IC50 of 1.86 nM.
With `C[C@@H]1COC[C@@H](C)N1c1nc(-c2ccnc(F)c2)[nH]c(=O)c1Cl` [Compound 341] the IC50 was 6.61 nM.
`CC1c2nnc(C(F)(F)F)n2C(C)CN1c1nc(-c2ccnc(F)c2)[nH]c(=O)c1Cl` (stereo not drawn) [Compound 356] gave an IC50 of 10 nM.
In the case of `C[C@H]1CCCN1c1nc(-c2ccnc(F)c2)[nH]c(=O)c1Cl` [Compound 278], the IC50 is reported as 14.8 nM.
`O=c1[nH]c(-c2ccnc(F)c2)nc(N2CCn3cnnc3C2)c1Cl` [Compound 269] was tested, and the IC50 was 0.525 nM.
Work on `C[C@H]1CCCCN1c1nc(-c2ccnc(F)c2)[nH]c(=O)c1Cl` [Compound 280] yielded an IC50 of 0.871 nM.
For `NC(=O)[C@H]1CCCN1c1nc(-c2ccnc(F)c2)[nH]c(=O)c1Cl` [Compound 247], the IC50 was 4.57 nM.
In the case of `O=c1[nH]c(-c2ccnc(F)c2)nc(NCc2ccccc2)c1Cl` [Compound 290], the IC50 is reported as 355 nM.
Work on `O=c1[nH]c(-c2ccnc(F)c2)nc(NCC2COCCN2)c1Cl` (stereo not drawn) [Compound 224] yielded an IC50 of 724 nM.
For `O=c1[nH]c(-c2ccnc(F)c2)nc(CN2CCOCC2)c1Cl` [Compound 397, 5-chloro-2-(2-fluoro-4-pyridyl)-4-(morpholinomethyl)-1H-pyrimidin-6-one], the IC50 was 219 nM.
Work on `O=c1[nH]c(-c2ccnc(F)c2)nc(N2CCOC3(CCOCC3)C2)c1Cl` [Compound 292] yielded an IC50 of 11.5 nM.
`NC(=O)N1CCN(c2nc(-c3ccnc(F)c3)[nH]c(=O)c2Cl)CC1` [Compound 239] was tested, and the IC50 was 1.1 nM.
With `O=c1[nH]c(-c2ccnc(F)c2)nc(SC2CCNCC2)c1Cl` [Compound 193] the IC50 was 2.88 nM.
With `O=c1[nH]c(-c2ccnc(F)c2)nc(N2CCOC3CNCC32)c1Cl` (stereo not drawn) [Compound 216] the IC50 was 1.7 nM.
`O=c1[nH]c(-c2ccnc(F)c2)nc(N2CCn3ccnc3C2)c1Cl` [Compound 353] was tested, and the IC50 was 1.62 nM.
For `O=c1[nH]c(-c2ccnc(F)c2)nc(NC2CCNCC2)c1Cl` [Compound 222], the IC50 was 13.5 nM.
`O=c1[nH]c(-c2ccnc(F)c2)nc(N2CCc3nncn3CC2)c1Cl` [Compound 354] gave an IC50 of 2 nM.
In the case of `CC(C)NC(=O)C1CCN(c2nc(-c3ccnc(F)c3)[nH]c(=O)c2Cl)CC1` [Compound 255], the IC50 is reported as 7.08 nM.
Molecule `O=c1[nH]c(-c2ccnc(F)c2)nc(N2CCC3CNCCC32)c1Cl` (stereo not drawn) [Compound 225] has an IC50 of 2.09 nM.
For `O=c1[nH]c(-c2ccnc(F)c2)nc(N2CC[C@H](O)C2)c1Cl` [Compound 215], the IC50 was 14.1 nM.
With `O=c1[nH]c(-c2ccnc(F)c2)nc(N2CC3(CNC3)C2)c1Cl` [Compound 198] the IC50 was 66.1 nM.
`N[C@@H]1CCN(c2nc(-c3ccnc(F)c3)[nH]c(=O)c2Cl)C1` [Compound 324] showed an IC50 of 14.5 nM.
Molecule `O=c1[nH]c(-c2ccnc(F)c2)nc(N2CCC3(CCCN3)CC2)c1Cl` [Compound 241] has an IC50 of 2.19 nM.
`O=c1[nH]c(-c2ccnc(F)c2)nc(N2CCC(C3CCOCC3)C2)c1Cl` (stereo not drawn) [Compound 228] was tested, and the IC50 was 53.7 nM.
`O=c1[nH]c(-c2ccnc(F)c2)nc(N2CCC3(CCNCC3)C2)c1Cl` [Compound 230] was tested, and the IC50 was 6.61 nM.
Work on `O=c1[nH]c(-c2ccnc(F)c2)nc(N2CCCC2)c1Cl` [Compound 276] yielded an IC50 of 6.31 nM.
`O=c1[nH]c(-c2ccnc(F)c2)nc(CN2CCNCC2)c1Cl` [Compound 398] gave an IC50 of 295 nM.
In the case of `O=c1[nH]c(-c2ccnc(F)c2)nc(N2CCCC(F)(F)CC2)c1Cl` [Compound 204], the IC50 is reported as 4.07 nM.
Molecule `O=c1[nH]c(-c2ccnc(F)c2)nc(N2CC3CNCC3C2)c1Cl` (stereo not drawn) [Compound 226] has an IC50 of 3.02 nM.
`CC(C)C[C@H]1CN2CCC[C@H]2CN1c1nc(-c2ccnc(F)c2)[nH]c(=O)c1Cl` [Compound 349] gave an IC50 of 83.2 nM.
Molecule `O=c1[nH]c(-c2ccnc(F)c2)nc(N2CCOC3(CCNCC3)C2)c1Cl` [Compound 227] has an IC50 of 2.24 nM.
In the case of `O=c1[nH]c(-c2ccnc(F)c2)nc(OCc2ccccc2)c1Cl` [Compound 294], the IC50 is reported as 182 nM.
Molecule `CNC(=O)C1CCN(c2nc(-c3ccnc(F)c3)[nH]c(=O)c2Cl)CC1` [Compound 231] has an IC50 of 2.88 nM.
In the case of `NC(=O)CN1CCN(c2nc(-c3ccnc(F)c3)[nH]c(=O)c2Cl)CC(F)(F)C1` [Compound 414, 2-[4-[5-chloro-2-(2-fluoro-4-pyridyl)-6-oxo-1H-pyrimidin-4-yl]-6,6-difluoro-1,4-diazepan-1-yl]acetamide], the IC50 is reported as 0.891 nM.
In the case of `O=c1[nH]c(-c2ccnc(F)c2)nc(N2CCOC(COc3ccccc3)C2)c1Cl` (stereo not drawn) [Compound 285], the IC50 is reported as 9.12 nM.
